Here are results for 25 molecules from patent US9266830B2, “Pesticidal arylpyrrolidines” (Bayer Intellectual Property GmbH, priority 2007, dated 2016).

This experiment relates to Boophilus microplus. In words: Boophilus microplus test (injection). As to conditions: application rate 20 μg/animal, adult engorged females, after 7 days. It counts as in vivo. As to the method:
Solvent: dimethyl sulfoxide
To produce a suitable preparation of active compound, 10 mg of active compound are dissolved in 0.5 ml solvent, and the concentrate is diluted with solvent to the desired concentration. Five adult engorged female ticks (Boophilus microplus) are injected with compound solution into the abdomen. Ticks are transferred into replica plates and incubated in a climate chamber for a period of time. Egg deposition of fertile eggs is monitored. After 7 days mortality in % is determined 100% means that all eggs are infertile; 0% means that all eggs are fertile.

Consider `CC(C)C(=O)NCc1ccc(N2CCC(c3cc(Cl)cc(Cl)c3)(C(F)(F)F)C2)cc1Cl` (stereo not shown) [1-3], for which the “activity (100% means that all eggs are infertile)” value was found to be 100%.

As to `O=C(NCc1ccc(N2CCC(c3cc(Cl)cc(Cl)c3)(C(F)(F)F)C2)cc1Cl)C1CC1` (stereo not shown) [1-4], the “activity (100% means that all eggs are infertile)” value was found to be 100%.

On to `O=C(NCc1ccc(N2CCC(c3cc(Cl)cc(Cl)c3)(C(F)(F)F)C2)cc1Cl)C1CCC1` (stereo not shown) [1-8], for which the “activity (100% means that all eggs are infertile)” value worked out at 100%.

Turning to `O=C(CC1CC1)NCc1ccc(N2CCC(c3cc(Cl)cc(Cl)c3)(C(F)(F)F)C2)cc1Cl` (stereo not shown) [1-12], the “activity (100% means that all eggs are infertile)” value came out at 100%.

For `O=C(CC(F)(F)F)NCc1ccc(N2CCC(c3cc(Cl)cc(Cl)c3)(C(F)(F)F)C2)cc1Cl` (stereo not shown) [1-19], the “activity (100% means that all eggs are infertile)” value is 100%.

Consider `O=C(NCc1ccc(N2CCC(c3cc(Cl)cc(Cl)c3)(C(F)(F)F)C2)cc1Cl)C(F)F` (stereo not shown) [1-21], for which the “activity (100% means that all eggs are infertile)” value is 100%.

`O=C(NCc1ccc(N2CCC(c3cc(Cl)cc(Cl)c3)(C(F)(F)F)C2)cc1Cl)C1CC1(Cl)Cl` (stereo not shown) [1-24]: the “activity (100% means that all eggs are infertile)” value amounted to 100%.

Turning to `O=C(NCc1ccc(N2CCC(c3cc(Cl)cc(Cl)c3)(C(F)(F)F)C2)cc1Cl)C1CC1(F)F` (stereo not shown) [1-25], the “activity (100% means that all eggs are infertile)” value was found to be 100%.

As to `CC=CC(=O)NCc1ccc(N2CCC(c3cc(Cl)cc(Cl)c3)(C(F)(F)F)C2)cc1Cl` (stereo not shown) [1-30], the “activity (100% means that all eggs are infertile)” value was found to be 100%.

On to `C=CCC(=O)NCc1ccc(N2CCC(c3cc(Cl)cc(Cl)c3)(C(F)(F)F)C2)cc1Cl` (stereo not shown) [1-36], for which the “activity (100% means that all eggs are infertile)” value is on record as 100%.

As for `COCC(=O)NCc1ccc(N2CCC(c3cc(Cl)cc(Cl)c3)(C(F)(F)F)C2)cc1Cl` (stereo not shown) [1-40], the “activity (100% means that all eggs are infertile)” value is 100%.

With `CSCC(=O)NCc1ccc(N2CCC(c3cc(Cl)cc(Cl)c3)(C(F)(F)F)C2)cc1Cl` (stereo not shown) [1-42], the “activity (100% means that all eggs are infertile)” value was 100%.

For the molecule `CN(Cc1ccc(N2CCC(c3cc(Cl)cc(Cl)c3)(C(F)(F)F)C2)cc1Cl)C(=O)CC(F)(F)F` (stereo not shown) [1-75], the “activity (100% means that all eggs are infertile)” value came to 100%.

As to `O=C(NCc1ccc(N2CCC(c3cc(Cl)cc(Cl)c3)(C(F)(F)F)C2)cc1Cl)NC1CC1` (stereo not shown) [1-81], the “activity (100% means that all eggs are infertile)” value turned out to be 100%.

On to `C#CCNC(=O)NCc1ccc(N2CCC(c3cc(Cl)cc(Cl)c3)(C(F)(F)F)C2)cc1Cl` (stereo not shown) [1-88], for which the “activity (100% means that all eggs are infertile)” value came to 100%.

For the molecule `CCNC(=O)N(C)Cc1ccc(N2CCC(c3cc(Cl)cc(Cl)c3)(C(F)(F)F)C2)cc1Cl` (stereo not shown) [1-113], the “activity (100% means that all eggs are infertile)” value stood at 100%.

Turning to `NCc1ccc(N2CCC(c3cc(Cl)cc(Cl)c3)(C(F)(F)F)C2)cc1C(F)(F)F` (stereo not shown) [1-141], the “activity (100% means that all eggs are infertile)” value amounted to 100%.

As to `CC(C)C(=O)NCc1ccc(N2CCC(c3cc(Cl)cc(Cl)c3)(C(F)(F)F)C2)cc1C(F)(F)F` (stereo not shown) [1-145], the “activity (100% means that all eggs are infertile)” value was 100%.

With `O=C(NCc1ccc(N2CCC(c3cc(Cl)cc(Cl)c3)(C(F)(F)F)C2)cc1C(F)(F)F)C1CC1` (stereo not shown) [1-146], the “activity (100% means that all eggs are infertile)” value is recorded as 100%.

For `O=C(NCc1ccc(N2CCC(c3cc(Cl)cc(Cl)c3)(C(F)(F)F)C2)cc1C(F)(F)F)C1CCC1` (stereo not shown) [1-150], the “activity (100% means that all eggs are infertile)” value is on record as 100%.

For the molecule `O=C(CC1CC1)NCc1ccc(N2CCC(c3cc(Cl)cc(Cl)c3)(C(F)(F)F)C2)cc1C(F)(F)F` (stereo not shown) [1-155], the “activity (100% means that all eggs are infertile)” value is listed as 100%.

Regarding `C=CC(=O)NCc1ccc(N2CCC(c3cc(Cl)cc(Cl)c3)(C(F)(F)F)C2)cc1C(F)(F)F` (stereo not shown) [1-173], the “activity (100% means that all eggs are infertile)” value stood at 100%.

For `C=CCC(=O)NCc1ccc(N2CCC(c3cc(Cl)cc(Cl)c3)(C(F)(F)F)C2)cc1C(F)(F)F` (stereo not shown) [1-180], the “activity (100% means that all eggs are infertile)” value amounted to 100%.

Take `N#CCC(=O)NCc1ccc(N2CCC(c3cc(Cl)cc(Cl)c3)(C(F)(F)F)C2)cc1C(F)(F)F` (stereo not shown) [1-183]: the “activity (100% means that all eggs are infertile)” value is 100%.

For the molecule `CSCC(=O)NCc1ccc(N2CCC(c3cc(Cl)cc(Cl)c3)(C(F)(F)F)C2)cc1C(F)(F)F` (stereo not shown) [1-186], the “activity (100% means that all eggs are infertile)” value was 100%.
